Earlier results on 1 substance are cited in patent US20240374543A1, “PHARMACEUTICAL COMPOSITIONS” (priority 2021, published 2024).

The conditions of the data set: determined by the FDA.

As to N-Nitrosodimethylamine [NDMA], the “acceptable daily intake limit of NDMA” value is listed as 96 nanogram per day.
